Entries after “also recorded” stand apart in the source; their conditions may differ. Like-named read-outs stand apart in the source and are kept apart here.
How the values were obtained:
[1] = system: 5-HT1; assay: Binding test 5-HT1; details: at 3.6 10^-5 M
From the text: Compounds A and Compounds B of the present invention, which are examples of endo-tropyl and quinuclidylamide of 7-azaindolyl-3-carboxylic acid respectively have been studied "in vitro" for their interaction with the 5-HT1, 5-HT2 and 5-HT3 receptors.
Binding Test: 5-HT1 5-HT2
% of inhibition at 3.6 10^-5 M

[2] = system: α1; assay: Displacement of selective ligand from α1 receptor; format: binding; details: 10^-5 M; 10 µM
From the text: (§1) The interaction of Compounds A and B with other receptors (α1, α2, benzodiazepine (o bzd), GABA A, δ) in comparison to the typical 5-HT3 antagonist Ondastron and BRL 24682 has been studied and for each case the displacement % of the single selective ligand from the corresponding receptor at concentration 10^-5 M of the compounds under examination, has been evaluated.

[3] = system: α2; assay: Displacement of selective ligand from α2 receptor; format: binding; details: 10^-5 M; 10 µM
From the text: as §1

[4] = system: GABA A; assay: Displacement of selective ligand from GABA A receptor; format: binding; details: for Dispacement percentage Gaba A: 10^-5 M, 10 µM
[5] = system: σ; assay: Displacement of selective ligand from σ receptor (δ in text); format: binding; details: 10^-5 M; 10 µM
[6] = system: coughing stimulus by ac. citric; assay: Inhibition of cough induced by inhalation of citric acid; format: in vivo, guinea pigs; details: for ED50: Cavia porcellus, po, read-out: ID50 coughing stimulus ac. citric; for % inhibition of the coughing stimulus by ac. citric: guinea pigs, single dose 100 mg/kg
Method: (§2) Besides these differences "in vitro" on the receptor behaviour great differences has been evidenced "in vivo" in the tussive stimulus inhibition provoked by inhalation of irritant citric acid as well as capsaicine aqueous solutions.
(§3) The compounds have been tested in guinea pigs in comparison to codeine, used as standard compound, at the single dose of 100 mg/kg according to the technique of Charlier et al., (Arch. Int. Pharmacodyn., 134, 306, 1961) which has been slightly modified.
(§4) The percent reduction evaluated in the number of short coughs after administration of the compound under examination taken in comparison to the number of short coughs observed in each of the animals to which the compound was administered, have been noted.
(§5) For these compounds as well as for the most interesting reference compounds the dose inhibiting 50% of the short coughs (ID50) induced either by citric acid or capsaicine has been determined.

[7] = system: coughing stimulus by capsaicin; assay: Inhibition of cough induced by inhalation of capsaicin; format: in vivo, guinea pigs; details: for ED50: Cavia porcellus, po, read-out: ID50 coughing stimulus capsaicin; for % inhibition of the coughing stimulus by capsaicin: guinea pigs, single dose 100 mg/kg
Method: as §2, §3, §4, §5

[8] = system: sleeping time induced by barbiturates; assay: Increase of sleeping time induced by barbiturates; format: in vivo, mice; details: for sleeping time increase: mice, barbiturate-induced sleep
From the text: For each of the compounds under examination it has been also tested the effect on the increase of the sleeping time induced by barbiturates. […]

[9] = system: extra vasation by capsaicine; assay: Protection from capsaicine extravasation (Evans bleu); format: in vivo
From the text: It is assumed that Capsaicine releases substance P from the peripheral nerve endings of the sensitive fibers C and determines the necrosis of the same. It is known that capsaicine administration provokes the formation of an exudate (extra vasation by capsaicine) which can be evaluated by concomitant Evans bleu administration.

[10] = system: coughing stimulus by capsaicin; assay: Inhibition of cough induced by inhalation of capsaicin; format: in vivo; details: guinea pigs
[11] = system: cough induced by capsaicine; assay: Antitussive effect, capsaicine aqueous solution as irritant (Table V); format: in vivo, mice; details: os; for short coughs average n° ± s.e. / short coughs inhib. %: single dose 100 mg/kg, mice
Method: (§6) Further compound A (N-endo-8-methyl-8-azabicyclo [3,2,1] oct-3-yl)-7-azaindolyl-3-carboxamide has been tested for its antitussive effect in comparison to the closest compound belonging to the class of compounds of Japanese Kokai Tokkyo Koho JP 04 21 681, i.e., 8-methyl-8-azabicyclo [3,2,1] oct-3-yl)-1-methyl-7-azaindolyl-3-carboxamide. The compounds were administered by os at a single dose of 100 mg/kg on mice using as irritant agent capsaicine aqueous solution according to the previous mentioned technique.
as §6, with “.vertline.3,2,1.vertline.” for “[3,2,1]”, “antitussiv” for “antitussive”, “Jpn.” for “Japanese”, “i.e. 8-methyl-8-azabicliclo .vertline.3,2,1.vertline.” for “i.e., 8-methyl-8-azabicyclo [3,2,1]”

[12] = system: benzodiazepine (bdz) receptor; assay: Displacement of selective ligand from benzodiazepine receptor; format: binding
From the text: as §1

[13] = system: coughing stimulus by 2N H2 SO4; assay: Inhibition of cough induced by 2N H2SO4; format: in vivo, guinea pigs; details: Cavia porcellus, po, read-out: ID50 coughing stimulus 2N H2 SO4
[14] = system: 5-HT2; assay: Binding test 5-HT2; details: at 3.6 10^-5 M
[15] = molecular target: T1, 5-HT3 (Homo sapiens, UniProt P46098); assay: Binding test 5-HT3
T1 sequence (P46098 24-478): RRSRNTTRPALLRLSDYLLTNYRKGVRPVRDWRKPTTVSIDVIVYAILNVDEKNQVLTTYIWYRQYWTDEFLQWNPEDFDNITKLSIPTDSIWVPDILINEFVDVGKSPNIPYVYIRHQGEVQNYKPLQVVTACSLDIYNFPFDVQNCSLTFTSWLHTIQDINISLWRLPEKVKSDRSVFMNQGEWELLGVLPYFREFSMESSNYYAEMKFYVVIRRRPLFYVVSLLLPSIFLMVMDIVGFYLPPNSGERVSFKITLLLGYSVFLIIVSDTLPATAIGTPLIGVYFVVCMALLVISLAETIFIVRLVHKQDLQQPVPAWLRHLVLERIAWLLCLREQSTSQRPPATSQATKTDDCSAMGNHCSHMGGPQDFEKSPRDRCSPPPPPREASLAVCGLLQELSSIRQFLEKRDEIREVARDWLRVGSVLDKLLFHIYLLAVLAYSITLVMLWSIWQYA

[16] = Acute oral toxicity; details: mouse, in vivo, mice
Method: The compounds of the invention may be administered by oral, sublingual, endovenous, subcutaneous, intramuscular, rectal route and by inhalation. The preferred doses vary from about 0.05 to about 15 mg/kg/die, depending on the conditions, weight, age of the patient and on the administration route. Higher dosages of the compounds of the invention, even for a prolonged period of time, have no contraindication because of their very low toxicity.

## Cc1nccn1CC1CCc2c(c3ccccc3n2C)C1=O (racemic) [Ondasetron, reference compound]
[1]
  % of inhibition 5-HT1: 7.6%
[2]
  Dispacement percentage α1: 72%
[3]
  Dispacement percentage α2: 30%
[4]
  interaction towards GABA A receptor (in words): aspecific
  Dispacement percentage Gaba A: 38%
[5]
  Dispacement percentage σ: 45%
[6]; os, 95% confidence
  ED50: 209 mg/kg
[6]
  % inhibition of the coughing stimulus by ac. citric: 30.5%
[7]; os, 95% confidence
  ED50: 97 mg/kg
[7]
  % inhibition of the coughing stimulus by capsaicin: 50.5%
[8]; at the dose of 10 mg/kg
  sleeping time increase: -8
[9]; 10 mg/kg i.p.
  protection from capsaicine extravasation (in words): Solely Compound A and not Ondasetron has been found to give a 42% protection

## COc1ccccc1CN[C@H]1C2CCN(CC2)[C@H]1C(c1ccccc1)c1ccccc1 (relative stereo) [CP 96 345]
[10]; 10 mg/kg intraperitoneal
  short cough inhibition, capsaicin: 26%
[10]; 40 mg/kg intraperitoneal
  short cough inhibition, capsaicin: 42%

## CN1C2CCC1CC(NC(=O)c1cn(C)c3ncccc13)C2 (stereo not shown) [8-methyl-8-azabicyclo [3,2,1] oct-3-yl)-1-methyl-7-azaindolyl-3-carboxamide, reference compound]
[11]
  short coughs average n° ± s.e.: 6.5 ± 0.7
  short coughs inhib. %: 6%

## COc1cc(N)c(Cl)cc1C(=O)N[C@H]1C[C@H]2CC[C@@H](C1)N2C [BRL 24682, N-(endo-8-methyl-8-azabicyclo-[3.2.1]oct-3-yl)-2-methoxy-4-amino-5-chlorobenzamide, reference compound]
[2]
  Dispacement percentage α1: 28%
[3]
  Dispacement percentage α2: 16%
[12]
  interaction with benzodiazepine receptor (in words): high interaction with the benzodiazepine and GABA A receptors
[12]; 10^-5 M, 10 µM
  Dispacement percentage bdz: 98%
[4]
  interaction towards GABA A receptor (in words): high interaction with the benzodiazepine and GABA A receptors
  Dispacement percentage Gaba A: 89%
[5]
  Dispacement percentage σ: 0%
[6]
  % inhibition of the coughing stimulus by ac. citric: 44.1%
[8]; oral, single dose 100 mg/kg
  sleeping time increase: +34.8

## COc1ccc2c3c1O[C@H]1[C@@H](O)C=C[C@H]4[C@@H](C2)N(C)CC[C@@]341 [Codeine, reference compound]
[6]
  ED50: 65 mg/kg
  % inhibition of the coughing stimulus by ac. citric: 63.2%
[7]
  ED50: 74 mg/kg
  % inhibition of the coughing stimulus by capsaicin: 58.4%
[8]; oral, single dose 100 mg/kg
  sleeping time increase: +106.4
[13]
  ED50: 102 mg/kg

## CN1[C@@H]2CC[C@H]1C[C@@H](NC(=O)c1c[nH]c3ncccc13)C2 [Compound A, N-(endo-8-methyl-8-azabicyclo[3.2.1]oct-3-yl)-7-azaindolyl-3-carboxamide]
[1]
  % of inhibition 5-HT1: 0.0%
[14]
  % of inhibition 5-HT2: 8.6%
[15]
  IC50: 3 µM
  interaction with 5-HT3 receptors (in words): very weak interaction with 5-HT3 receptors
[15]; vs Compound B
  interaction with 5-HT3 receptors relative to Compound B (in words): logarithmically lower than that of Compound B
[15]; vs Ondasetron
  interaction with 5-HT3 receptors relative to Ondasetron (times lower): 1,000 times
[2]
  Dispacement percentage α1: 13%
[4]
  interaction towards GABA A receptor (in words): unusual ability of a double interaction, apparently selective, towards GABA A and δ receptors
  Dispacement percentage Gaba A: 83%
[5]
  Dispacement percentage σ: 70%
[6]
  ED50: 57 mg/kg
  % inhibition of the coughing stimulus by ac. citric: 61.7%
[6]; guinea pig, in vivo
  antitussive effect, citric acid (in words): depends on the dose administered; also recorded: at least equiactive as codeine
[7]
  ED50: 51 mg/kg
  % inhibition of the coughing stimulus by capsaicin: 76.30%
[7]; guinea pig, in vivo
  antitussive effect, capsaicin (in words): depends on the dose administered; also recorded: at least equiactive as codeine
[8]; oral, single dose 100 mg/kg
  sleeping time increase: -28.9
[8]; mouse, in vivo
  increase of the sleeping time induced by barbiturates (in words): does not show any increase of the sleeping time induced by barbiturates
[9]; 10 mg/kg intraperitoneal, vs non-treated animals
  protection from capsaicine extravasation: 42%
[11]; 100 mg/kg
  antitussive effect, Table V (in words): effective as an antitussive compound; also recorded: effectiveness of compound A as antitussive compound
[11]
  short coughs average n° ± s.e.: 1.8 ± 0.5
  short coughs inhib. %: 75%
[16]
  LD50: 1000 mg/kg

## O=C(NC1CN2CCC1CC2)c1c[nH]c2ncccc12 (stereo not shown) [Compound B, N-(1-azabicyclo[2.2.2]oct-3-yl)-7-azaindolyl-3-carboxamide]
[1]
  % of inhibition 5-HT1: 37.0%
[14]
  % of inhibition 5-HT2: 3.9%
[15]
  IC50: 0.3 µM
[2]
  Dispacement percentage α1: 7%
[4]
  interaction towards GABA A receptor (in words): definitely weak or absent
  Dispacement percentage Gaba A: 6.7%
[5]
  Dispacement percentage σ: 26%
[6]
  % inhibition of the coughing stimulus by ac. citric: 46.0%
[7]
  % inhibition of the coughing stimulus by capsaicin: 21.0%
[8]; oral, single dose 100 mg/kg
  sleeping time increase: -7

## OC[C@@H](O)CN1CCN(c2ccccc2)CC1 [Levodropropyzina]
[6]; os, 95% confidence
  ED50: 151 mg/kg
[7]; os, 95% confidence
  ED50: 145 mg/kg
[13]; os, 95% confidence
  ED50: 265 mg/kg

Reference: US5750536A, “Tropyl 7-azaindol-3-ylcarboxyamides as antitussive agent” (priority 1993, dated 1998)
